Tested on: G-401 tumor spheroids, viability % test/control
Experiment: Anticancer human tumor G-401 cell line growth inhibition;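 further: spheroids exposed to compound for 7 days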;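 on viability, T/C: 100% = DMSO vehicle-treated spheroids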
Conditions: spheroids with HUVEC and MSC; for IC50: curve of first compound; for viability, T/C: stronger effect = lower value
How it was run: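 Complex spheroids of malignant cells with endothelial cells and mesenchymal stem cells; agents alone or combined, from near clinical Cmax (or 10 microM if unknown) down in half-log steps, 0.25% DMSO final.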

`O=C(c1cc(Cc2n[nH]c(=O)c3ccccc23)ccc1F)N1CCN(C(=O)C2CC2)CC1` + COc1cc2c(cc1O)CCNC21CSC2c3c(OC(C)=O)c(C)c4c(c3C(COC1=O)N1C(O)C3Cc5cc(C)c(OC)c(O)c5C(C21)N3C)OCO4 gave an IC50 (second compound 30 pM) of 9070 nM, an IC50 (second compound 94.9 pM) of 6010 nM and an IC50 (second compound 0.0003 µM) of under 94.9 nM. For the same compound, the IC50 (second compound 0.000949 µM) was under 94.9 nM, the IC50 (second compound 0.003 µM) was under 94.9 nM and the viability, T/C (second compound 30 pM, first compound 0.0949 µM) was 80.3%. It also gave a viability, T/C (second compound 30 pM, first compound 0.3 µM) of 97%, a viability, T/C (second compound 30 pM, first compound 0.949 µM) of 88.3% and a viability, T/C (second compound 30 pM, first compound 3 µM) of 77.8%. It also gave a viability, T/C (second compound 30 pM, first compound 9.49 µM) of 49.1%, a viability, T/C (second compound 30 pM, first compound 30 µM) of 30.1% and a viability, T/C (second compound 94.9 pM, first compound 0.0949 µM) of 89.4%. It also gave a viability, T/C (second compound 94.9 pM, first compound 0.3 µM) of 78.8%, a viability, T/C (second compound 94.9 pM, first compound 0.949 µM) of 82.2% and a viability, T/C (second compound 94.9 pM, first compound 3 µM) of 71.5%. It also gave a viability, T/C (second compound 94.9 pM, first compound 9.49 µM) of 35.9%, a viability, T/C (second compound 94.9 pM, first compound 30 µM) of 25.7% and a viability, T/C (second compound 0.0003 µM, first compound 0.0949 µM) of 32.3%. For the same compound, the viability, T/C (second compound 0.0003 µM, first compound 0.3 µM) was 37.4%, the viability, T/C (second compound 0.0003 µM, first compound 0.949 µM) was 39.3% and the viability, T/C (second compound 0.0003 µM, first compound 3 µM) was 29.5%. For the same compound, the viability, T/C (second compound 0.0003 µM, first compound 9.49 µM) was 18.7%, the viability, T/C (second compound 0.0003 µM, first compound 30 µM) was 16.2% and the viability, T/C (second compound 0.000949 µM, first compound 0.0949 µM) was 10.1%. It also gave a viability, T/C (second compound 0.000949 µM, first compound 0.3 µM) of 5.68%, a viability, T/C (second compound 0.000949 µM, first compound 0.949 µM) of 7.52% and a viability, T/C (second compound 0.000949 µM, first compound 3 µM) of 6.02%. The viability, T/C (second compound 0.000949 µM, first compound 9.49 µM) was 5.03%, the viability, T/C (second compound 0.000949 µM, first compound 30 µM) was 1.6% and the viability, T/C (second compound 0.003 µM, first compound 0.0949 µM) was 0.13%. It also gave a viability, T/C (second compound 0.003 µM, first compound 0.3 µM) of 0.15%, a viability, T/C (second compound 0.003 µM, first compound 0.949 µM) of 0.12% and a viability, T/C (second compound 0.003 µM, first compound 3 µM) of 0.18%. It also gave a viability, T/C (second compound 0.003 µM, first compound 9.49 µM) of 0.2% and a viability, T/C (second compound 0.003 µM, first compound 30 µM) of 0.24%.

`CC1COCCN1c1cc(-c2ccnn2C)c2ccnc(-c3ccn[nH]3)c2n1` (stereo not given) + CC[C@@]1(O)C(=O)OCc2c1cc1n(c2=O)Cc2cc3c(CN(C)C)c(O)ccc3nc2-1 showed an IC50 (second compound 0.003 µM) of under 31.6 nM, an IC50 (second compound 0.00949 µM) of under 31.6 nM and an IC50 (second compound 0.03 µM) of under 31.6 nM. It also gave an IC50 (second compound 0.0949 µM) of under 31.6 nM, an IC50 (second compound 0.3 µM) of under 31.6 nM and a viability, T/C (second compound 0.003 µM, first compound 0.0316 µM) of 38.2%. The viability, T/C (second compound 0.003 µM, first compound 0.1 µM) was 17.3%, the viability, T/C (second compound 0.003 µM, first compound 0.316 µM) was 13.4% and the viability, T/C (second compound 0.003 µM, first compound 1 µM) was 13.5%. It also gave a viability, T/C (second compound 0.003 µM, first compound 3.16 µM) of 15%, a viability, T/C (second compound 0.003 µM, first compound 10 µM) of 15.1% and a viability, T/C (second compound 0.00949 µM, first compound 0.0316 µM) of 16.6%. The viability, T/C (second compound 0.00949 µM, first compound 0.1 µM) was 11.1%, the viability, T/C (second compound 0.00949 µM, first compound 0.316 µM) was 9.94% and the viability, T/C (second compound 0.00949 µM, first compound 1 µM) was 10.2%. For the same compound, the viability, T/C (second compound 0.00949 µM, first compound 3.16 µM) was 12.7%, the viability, T/C (second compound 0.00949 µM, first compound 10 µM) was 14.6% and the viability, T/C (second compound 0.03 µM, first compound 0.0316 µM) was 12.9%. For the same compound, the viability, T/C (second compound 0.03 µM, first compound 0.1 µM) was 11.1%, the viability, T/C (second compound 0.03 µM, first compound 0.316 µM) was 10.6% and the viability, T/C (second compound 0.03 µM, first compound 1 µM) was 10%. The viability, T/C (second compound 0.03 µM, first compound 3.16 µM) was 11.1%, the viability, T/C (second compound 0.03 µM, first compound 10 µM) was 12.1% and the viability, T/C (second compound 0.0949 µM, first compound 0.0316 µM) was 10.7%. The viability, T/C (second compound 0.0949 µM, first compound 0.1 µM) was 8.92%, the viability, T/C (second compound 0.0949 µM, first compound 0.316 µM) was 8.64% and the viability, T/C (second compound 0.0949 µM, first compound 1 µM) was 8.17%. For the same compound, the viability, T/C (second compound 0.0949 µM, first compound 3.16 µM) was 8.68%, the viability, T/C (second compound 0.0949 µM, first compound 10 µM) was 9.11% and the viability, T/C (second compound 0.3 µM, first compound 0.0316 µM) was 6.09%. For the same compound, the viability, T/C (second compound 0.3 µM, first compound 0.1 µM) was 5.5%, the viability, T/C (second compound 0.3 µM, first compound 0.316 µM) was 5.49% and the viability, T/C (second compound 0.3 µM, first compound 1 µM) was 4.45%. It also gave a viability, T/C (second compound 0.3 µM, first compound 3.16 µM) of 4.16% and a viability, T/C (second compound 0.3 µM, first compound 10 µM) of 3.75%.
